One may read the Kd as the constant that tells how readily two partners part at equilibrium. As a reminder, the Kp is the ratio of the level in a tissue or fluid to that in plasma or blood. For orientation: AUC means the area under the concentration-time curve, a measure of exposure. Read a low AUC as low exposure. As a reminder, the Papp is a coefficient for how fast a substance crosses the barrier. A high value points to fast passage. For orientation: efflux ratio means the permeability from basolateral to apical divided by that in the opposite direction, in the common usage.

The nature of data set [1]: Human Liver Microsomal (HLM) stability assay. The data set is classed as in vitro ADME. Conditions: 0.001 mM, 0.25 mg/mL protein, NADPH, 37° C. Here is the method:
Liver homogenates provide a measure of a compounds inherent vulnerability to Phase I (oxidative) enzymes, including CYP450s (e.g. CYP2C8, CYP2D6, CYP1A, CYP3A4, CYP2E1), esterases, amidases and flavin monooxygenases (FMOs).
The half life (T½) of test compounds was determined, on exposure to Human Liver Microsomes, by monitoring their disappearance over time by LC-MS. Compounds at 0.001 mM were incubated at for 40 min at 37° C., 0.1 M Tris-HCl, pH 7.4 with human microsomal sub-cellular fraction of liver at 0.25 mg/mL protein and saturating levels of NADPH as co-factor. At timed intervals, acetonitrile was added to test samples to precipitate protein and stop metabolism. Samples were centrifuged and analysed for parent compound using analytical Method A (see Materials & Methods).

In the next data set the test system is Caco-2 cells. Briefly: Caco-2 permeation assay. Conditions: 0.01 mM. For orientation: Caco-2 cells form a polarised layer with tight junctions and transporters.
Another data set addresses FKBP12 (Homo sapiens, UniProt P62942). Briefly: In vitro FKBP12 binding assay (GdnHCl unfolding). An excerpt: FKBP12 reversibly unfolds in the chemical denaturant guandinium hydrochloride (GdnHCl) and the unfolding can be monitored by the change in the intrinsic fluorescence of the protein (Main et al, 1998). Ligands which specifically bind and stabilise the native state of FKBP12 shift the denaturation curve such that the protein unfolds at higher concentrations of chemical denaturant (Main et al, 1999). From the difference in stability, the ligand-binding constant can be determined using equation 1.
where ΔGapp is the apparent difference in free energy of unfolding between free and ligand-bound forms, ΔGD−N^H^2^O is the free energy of unfolding in water of free protein, [L] the concentration of ligand and kd the dissociation constant for the protein-ligand complex (Meiering et al, 1992). The free energy of unfolding can be related to the midpoint of the unfolding transition using the following equation: […]
where mD−N is a constant for a given protein and given denaturant and which is proportional to the change in degree of exposure of residues on unfolding (Tanford 1968 and Tanford 1970), and [D]50% is the concentration of denaturant corresponding to the midpoint of unfolding.
where <mD−N> is the average m-value of the unfolding transition and Δ[D]50% the difference in midpoints for the rapamycin-FKBP12 unfolding transition and unknown-ligand-FKBP12 complex unfolding transition. Under conditions where [L]>Kd, then, ΔΔGD−N, can be related to the relative Kds of the two compounds through equation 4: […]

Data set [2] is described as follows: Pharmacokinetic analysis Protocol 1 (blood and brain). Conditions: female, CD1, mouse, 3 mg/kg.
Description: The test compounds were prepared in a vehicle consisting of 4% Ethanol, 5% Tween-20, 5% polyethyleneglycol 400 in 0.15M NaCl. A single dbse of 10 mg/kg p.o. or 3 mg/kg i.v. was administered to groups of female CD1 mice (3 mice for each compound per time point). At 0 min, 4 min, 15 min, 1 h, 4 h, and 24 h groups were sacrificed and the blood and the brain were collected from each mouse for further analysis.
The brain samples were snap frozen in liquid nitrogen and stored at −20° C. A minimum of 0.2 mL of whole blood from each animal was collected in tubes containing ethylene diamine tetra-acetic acid (EDTA) as anticoagulant, thoroughly mixed, and stored at −20° C.
Analysis was performed by ASI Limited, (St George's Hospital Medical School, London). The concentration of the test compound in the blood and brain samples supplied was determined by HPLC with MS detection. Control, test compound free, blood samples were obtained from Harlan Sera-Lab Limited, (Loughborough, England). Time zero brain samples were supplied as control, test compound free, brain samples.
One hemisphere of each brain was homogenized with 5 mL water.
The control or test sample of mouse brain or blood (0.05 mL), internal standard solution (0.1 mL), 5% Zinc sulphate solution (0.5 mL), and acetone (0.5 mL) were pipetted into a 2 mL polypropylene tube (Sarstedt Limited, Beaumont Leys, Leicester, UK) and the contents were then mixed for a minimum of 5 minutes (IKA-Vibrax-VXR mixer, Merck (BDH) Limited, Poole Dorset, UK). The tubes were then centrifuged in a microfuge for a minimum of 2 minutes. The solvent layer was decanted into a 4.5 mL polypropylene tube containing sodium hydroxide (0.1M, 0.1 mL) and methyl-tert-butyl ether (MTBE, 2 mL). The tube was then mixed for a minimum of 5 minutes (IKA-Vibrax-VXR mixer) and then centrifuged at 3500 rpm for 5 minutes. The solvent layer was transferred to a 4.5 mL conical polypropylene tube, placed in a SpeedVac® and evaporated to dryness.
The dried extracts were reconstituted with 0.15 mL 80% methanol and mixed for a minimum of 5 minutes (IKA-Vibrax-VXR mixer) and centrifuged at 3500 rpm for 5 minutes. The extract was transferred to auto sampler tubes (NLG Analytical, Adelphi Mill, Bollington, Cheshire, UK) and placed into the auto-sampler tray which was set at ambient temperature. The auto-sampler was programmed to inject a 0.03 mL aliquot of each extract onto the analytical column.
The AUC for each compound in blood or in brain tissue was calculated using Kinetica 4.4 (InnaPhase Corporation), using a non-compartmental model and the trapezoidal method for AUC calculation.
The partition coefficient (Ri) for each compound after p.o. and i.v. administration was calculated as shown below:
The partition coefficient (R) for each compound after i.v. administration was calculated as shown below:
Another data set can be described thus: Caco-2 permeation assay. The following applies: human, Caco-2, pH 7.4.
Another data set relates to EAE. Briefly: Experimental allergic encephalomyelitis (EAE) model of multiple sclerosis. In kind it is in vivo, male Lewis rats. The following applies: rat, in vivo.
[3] abbreviates: relative to literature Kd of rapamycin 0.2 nM.

Several values for one entry are separate records, joined by “and”; a condition that tells them apart may be missing. Equal entries are not always repeated. Where two headings read alike, the source gives them in different places.

FKBP12, sequence (P62942 whole entry, species assumed): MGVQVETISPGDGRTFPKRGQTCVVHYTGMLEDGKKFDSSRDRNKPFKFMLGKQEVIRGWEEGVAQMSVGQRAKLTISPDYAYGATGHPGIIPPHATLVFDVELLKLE
Description for Caco-2 cells: Confluent Caco-2 cells (Li, A. P., 1992; Grass, G. M., et al., 1992, Volpe, D. A., et al., 2001) in a 24 well Corning Costar Transwell format were provided by In Vitro Technologies Inc. (IVT Inc., Baltimore, Md., USA). The apical chamber contained 0.15 mL Hank's balanced buffer solution (HBBS) pH 7.4, 1% DMSO, 0.1 mM Lucifer Yellow. The basal chamber contained 0.6 mL HBBS pH 7.4, 1% DMSO. Controls and tests were incubated at 37° C. in a humidified incubator, shaken at 130 rpm for 1 h. Lucifer Yellow permeates via the paracellular (between the tight junctions) route only, a high Apparent Permeability (Papp) for Lucifer Yellow indicates cellular damage during assay and all such wells were rejected. […] Compounds were tested in a uni- and bi-directional format by applying compound to the apical or basal chamber (at 0.01 mM). Compounds in the apical or basal chambers were analysed by HPLC-MS (Method A, see Materials & Methods). Results were expressed as Apparent Permeability, Papp, (nm/s) and as the Flux Ratio (A to B versus B to A).
[formula] • Volume Acceptor: 0.6 ml (A>B) and 0.15 ml (B>A) • Area of monolayer: 0.33 cm2 • Δtime: 60 min
A positive value for the Flux Ratio indicates active efflux from the apical surface of the cells.

In the case of “16-O-desmethyl-27-O-desmethyl-39-desmethoxyrapamycin”, the “HLM stability: T½ min” value in data set [1] came to 47 min. For the same molecule, the “Caco-2: Efflux Ratio” value in the data set with Caco-2 cells (bi-directional format) is on record as 37. In the data set on Caco-2 cells (pH 7.4, 1 h), the “Caco-2: Papp” value came out at 1.3 ×10⁻⁶ cm/s. Besides, the affinity at FKBP12 (setting [3]), expressed as Kd, was 101 nM.
The molecule `CO[C@H]1CC2CC[C@@H](C)[C@@](O)(O2)C(=O)C(=O)N2CCCC[C@H]2C(=O)O[C@H]([C@@H](C)CC2CCC(O)CC2)CC(=O)[C@@H](C)/C=C(\C)[C@H](O)[C@H](O)C(=O)[C@@H](C)C[C@H](C)/C=C/C=C/C=C/1C` (some centres unmarked) [27-O-desmethyl-39-desmethoxyrapamycin] came in with a Kp in data set [2] (brain / whole blood, intravenous) of 4.56. This molecule also returned an AUC in data set [2] (whole blood, iv) of 1850 ng·h/mL. Besides, the half-life at 0.001 mM in data set [1] (human, liver microsomes, pH 7.4, read-out: HLM stability: T½ min) amounted to 27 min. For the same molecule, in “Caco-2 permeation assay”, the Papp at 1 h, 0.01 mM was determined as 0.4 ×10⁻⁶ cm/s and the efflux ratio at 1 h, 0.01 mM was determined as 91. Besides, binding on FKBP12 (setting [3]) was characterised by a dissociation constant (Kd) of 0.8 nM.
On to `COC1CC2CCC(C)C(O)(O2)C(=O)C(=O)N2CCCCC2C(=O)OC(C(C)CC2CCC(O)CC2)CC(=O)C(C)C=C(C)C(O)CC(=O)C(C)CC(C)C=CC=CC=C1C` (centres unmarked) [27-desmethoxy-39-desmethoxy rapamycin], for which, on FKBP12, binding was characterised by a dissociation constant (Kd) of 160 nM.
Turning to `O=P1(N(CCCl)CCCl)NCCCO1` (centres unmarked) [Cyclophosphamide, reference compound], in the data set with EAE, the “Cumulative score Mean ± St Dev.” value was 33 ± 14.1 and 37 ± 26.6; the “Duration (days) Mean ± St Dev.” value is 13 ± 3.4 days and 15 ± 3.2 days; the “Onset Mean ± St Dev.” value was 13 ± 2.6 and 11 ± 1.1.
